A word on the Ki: it is a dissociation constant, usually derived from enzyme kinetics or from competition with a known ligand. In general, IC50 refers to the point on the concentration scale where inhibition reaches its midpoint.

Where only a bound is given, the exact number is not on record here.

The values below come from patent publication US8912221B2, “Biaryl amide derivatives” (Hoffmann-La Roche Inc., priority 2010, dated 2014).

Assay [1] deals with T1, Bradykinin-1 receptor (Homo sapiens (Human), UniProt P46663). Kind of assay: Receptor Binding Assay. The settings on record: membranes from CHO-K1 cells overexpressing Bradykinin-1 receptor; 6 nM [3H]Kallidin (Des Arg10, Leu9); read-out: B1R Binding Ki. The procedure:
Binding assays were done with membranes from CHO-K1 cells overexpressing Bradykinin-1 receptor.
For binding, Bradykinin-1 receptor antagonist compounds were added in various concentrations in 50 mM Tris pH 7.4, 5 mM MgCl2 together with 6 nM Kallidin (Des Arg^10, Leu^9), [3,4-Prolyl-3,4-^3H(N)] (PerkinElmer, 1.85-4.44 TBq/mmol) to 40 μg membrane protein containing approximately 1 fmol Bradykinin-1 receptor and incubated for 15 min at 27° C. To determine non-specific binding 10 μM Lys-(Des-Arg^9)-Bradykinin (Bachem) was added. Membranes were harvested through GF/B (glass fiber filter; PerkinElmer) plates, equilibrated with 0.5% polyethylenimine, air dried at 50° C. for 2 hr. Radioactivity was determined by counting in a topcounter (NXT Packard). Specific binding was defined as total binding minus nonspecific binding and typically represents about 90-95% of the total binding. Antagonist activity is expressed as Ki: inhibitor concentration required for 50% inhibition of specific binding corrected for the concentration of the radioligand.

Assay [2] concerns the target T1, Bradykinin-1 receptor. Put plainly: Calcium Mobilization Assay. The class given is cell-based. The settings on record: GeneBLAzer Bradykinin (B1)-NFAT-bla CHO-K1 cells; antagonist activity, FLIPR; read-out: Ca mobilization IC50. The procedure:
Calcium Mobilization Assay
GeneBLAzer® Bradykinin (B1)-NFAT-bla CHO-K1 cells (from Invitrogen) stably overexpressing the human bradykinin 1 receptor were cultured in DMEM (high glucose) supplemented with 10% dialysed FBS, 1% NEAA (non essential amino acids) 1% penicillin/streptomycin, 1% G418 and 0.1 mg/ml zeocin.
For the assay cells were grown overnight in 384-well black clear flat bottom polystyrene plates (Costar) at 37° C. at 5% CO2. After washing with DMEM, 20 mM Hepes, 2.5 mM probenecid, 0.1% BSA (DMEM assay buffer) cells were loaded with 4 μM Fluo-4 in the same DMEM assay buffer for 2 hours at 30° C. Excess dye was removed and cells were washed with DMEM assay buffer. 384-well compound plates were prepared with DMEM assay buffer/0.5% DMSO with or without various concentrations of test compounds. Usually compounds were tested for agonist and antagonist activity.
Test compounds were added to the assay plate and agonist activity was monitored as fluorescence for 80 seconds with a FLIPR (488 nm excitation; 510-570 nm emission; Molecular Devices). […] Increases in intracellular calcium are reported as maximum fluorescence after agonist exposure minus basal fluorescence before exposure. Antagonist activity is indicated as inhibitor concentration required for 50% inhibition of specific calcium increases.
On the technique in general: Calcium flux is commonly read through the fluorescence of an indicator in the cells.

T1 sequence (P46663 whole entry): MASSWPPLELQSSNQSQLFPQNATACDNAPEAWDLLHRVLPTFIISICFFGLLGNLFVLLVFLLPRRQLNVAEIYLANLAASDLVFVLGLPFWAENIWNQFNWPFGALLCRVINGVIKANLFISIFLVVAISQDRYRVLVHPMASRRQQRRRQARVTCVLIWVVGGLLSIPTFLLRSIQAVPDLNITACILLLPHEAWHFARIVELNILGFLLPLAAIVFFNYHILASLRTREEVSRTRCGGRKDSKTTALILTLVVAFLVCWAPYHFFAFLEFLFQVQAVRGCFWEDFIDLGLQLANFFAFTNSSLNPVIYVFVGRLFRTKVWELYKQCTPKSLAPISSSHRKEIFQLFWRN

As for `COc1ncc(C(=O)NC2(C(=O)N[C@H](C)c3ccc(-c4cc(Cl)cc(F)c4-c4noc(C)n4)cc3F)COC2)cn1` [Example 31, 2-Methoxy-pyrimidine-5-carboxylic acid (3-{(R)-1-[5′-chloro-3,3′-difluoro-2′-(5-methyl-[1,2,4]oxadiazol-3-yl)-biphenyl-4-yl]-ethylcarbamoyl}-oxetan-3-yl)-amide], on Bradykinin-1 receptor [1], the Ki came to 0.6 nM. For the same compound, at Bradykinin-1 receptor [2], the IC50 was under 0.032 nM.
As to `Cc1nc(-c2c(F)cc(Cl)cc2-c2cnc([C@@H](C)NC(=O)C3(NC(=O)c4cccnn4)COC3)c(F)c2)no1` [Example 29, Pyridazine-3-carboxylic acid [3-((R)-1-{5-[5-chloro-3-fluoro-2-(5-methyl-[1,2,4]oxadiazol-3-yl)-phenyl]-3-fluoro-pyridin-2-yl}-ethylcarbamoyl)-oxetan-3-yl]-amide], on Bradykinin-1 receptor [1], the Ki came to 14.1 nM. Also, at Bradykinin-1 receptor [2], the IC50 was found to be 9.4 nM.
On the same counts, the results for `Cc1nc(-c2c(F)cc(Cl)cc2-c2cnc([C@@H](C)NC(=O)C3(NC(=O)c4cn(C)cn4)COC3)c(F)c2)no1` [Example 27, 1-Methyl-1H-imidazole-4-carboxylic acid [3-((R)-1-{5-[5-chloro-3-fluoro-2-(5-methyl-[1,2,4]oxadiazol-3-yl)-phenyl]-3-fluoro-pyridin-2-yl}-ethylcarbamoyl)-oxetan-3-yl]-amide] are 82.6 nM and 107 nM.
Turning to `COc1ncc(C(=O)NC2(C(=O)N[C@H](C)c3ncc(-c4cc(Cl)cc(F)c4-c4noc(C)n4)cc3F)COC2)cn1` [Example 15, 2-Methoxy-pyrimidine-5-carboxylic acid [3-((R)-1-{5-[5-chloro-3-fluoro-2-(5-methyl-[1,2,4]oxadiazol-3-yl)-phenyl]-3-fluoro-pyridin-2-yl}-ethylcarbamoyl)-oxetan-3-yl]-amide], the Ki on Bradykinin-1 receptor [1] is 1.1 nM. Besides, at Bradykinin-1 receptor [2], the IC50 turned out to be 0.1 nM.
On the same counts, the results for `COC(=O)c1c(Cl)cccc1-c1ccc([C@@H](C)NC(=O)C2(NC(=O)c3ccno3)COC2)c(F)c1` [Example 12, 3-Chloro-3′-fluoro-4′-[(R)-1-({3-[(isoxazole-5-carbonyl)-amino]-oxetane-3-carbonyl}-amino)-ethyl]-biphenyl-2-carboxylic acid methyl ester] are 0.8 nM and 0.1 nM.
Regarding `Cc1nc(-c2c(F)cc(Cl)cc2-c2cnc([C@@H](C)NC(=O)C3(NC(=O)C(F)(F)F)COC3)c(F)c2)no1` [Example 2, 3-(2,2,2-Trifluoro-acetylamino)-oxetane-3-carboxylic acid ((R)-1-{5-[5-chloro-3-fluoro-2-(5-methyl-[1,2,4]oxadiazol-3-yl)-phenyl]-3-fluoro-pyridin-2-yl}-ethyl)-amide], the Ki at Bradykinin-1 receptor [1] amounted to 11.9 nM. Besides, the IC50 on Bradykinin-1 receptor [2] came to 1.2 nM.
